From patent US20050244359A1, “Topical regulation of triglyceride metabolism” (priority 2004, published 2005)
Where “and” joins values, the source holds several entries; their conditions need not be identical. Identical values can stand only once.

System: epidermal equivalents
Assay: Triglyceride production in living skin samples (epidermal equivalents, MatTek), HPTLC analysis
Assay type: cell-based
Settings: for net intensity (HPTLC, triglycerides): about 0.1 percent fatty acid, epidermal equivalents cultured for three days, triglycerides extracted in chloroform/methanol (2:1)
Protocol: A set of living skin samples, epidermal equivalents, obtained from MatTek, is tested with a sample of about 0.1 percent palmitoleic acid and about 0.1 percent oleic acid. A media is prepared of a transwell membrane at the air/liquid interface and is cultured for three days. At the end of the incubation period, each skin square is homogenized and its triglycerides extracted in chloroform/methanol (2:1). This is followed by HPTLC analysis. […] After one day of application it is surprising to find the increase in triglyceride concentration in the epidermal equivalents treated with palmitoleic acid. […] The net intensity of oleic acid is 859. In contrast, palmitoleic acid has a net intensity of 1324 and 1212, an average of 1268 net intensity.

Structure (SMILES): CCCCCCCC/C=C\CCCCCCCC(=O)O [oleic acid, reference compound]
- net intensity (HPTLC, triglycerides): 859
- effect on triglyceride production (in words) (epidermal equivalents, HPTLC): little effect

Structure (SMILES): CCCCCC/C=C\CCCCCCCC(=O)O [palmitoleic acid]
- net intensity (HPTLC, triglycerides): 1324 and 1212
- average net intensity (HPTLC, triglycerides) (about 0.1 percent, average of two values): 1268
- increase in triglyceride production (about 0.1 percent, epidermal equivalents, HPTLC): ~400%
- effect on triglyceride production (in words) (epidermal equivalents, HPTLC): time and dose-dependent increase in triglyceride production
